Laboratory results from patent US10259776B2, “Branched 3-phenylpropionic acid derivatives and their use” (BAYER INTELLECTUAL PROPERTY GMBH, priority 2011, dated 2019).

Target: sGC in the CHO reporter cell (Rattus norvegicus (Rat), UniProt P20595)
Experiment: Action at a recombinant guanylate cyclase reporter cell line
Format: cell-based
Details: CHO reporter cell in vitro
Description: The cellular action of the compounds according to the invention is determined at a recombinant guanylate cyclase reporter cell line, as described in F. Wunder et al., Anal. Biochem. 339, 104-112 (2005).

sGC in the CHO reporter cell, sequence (P20595 whole entry): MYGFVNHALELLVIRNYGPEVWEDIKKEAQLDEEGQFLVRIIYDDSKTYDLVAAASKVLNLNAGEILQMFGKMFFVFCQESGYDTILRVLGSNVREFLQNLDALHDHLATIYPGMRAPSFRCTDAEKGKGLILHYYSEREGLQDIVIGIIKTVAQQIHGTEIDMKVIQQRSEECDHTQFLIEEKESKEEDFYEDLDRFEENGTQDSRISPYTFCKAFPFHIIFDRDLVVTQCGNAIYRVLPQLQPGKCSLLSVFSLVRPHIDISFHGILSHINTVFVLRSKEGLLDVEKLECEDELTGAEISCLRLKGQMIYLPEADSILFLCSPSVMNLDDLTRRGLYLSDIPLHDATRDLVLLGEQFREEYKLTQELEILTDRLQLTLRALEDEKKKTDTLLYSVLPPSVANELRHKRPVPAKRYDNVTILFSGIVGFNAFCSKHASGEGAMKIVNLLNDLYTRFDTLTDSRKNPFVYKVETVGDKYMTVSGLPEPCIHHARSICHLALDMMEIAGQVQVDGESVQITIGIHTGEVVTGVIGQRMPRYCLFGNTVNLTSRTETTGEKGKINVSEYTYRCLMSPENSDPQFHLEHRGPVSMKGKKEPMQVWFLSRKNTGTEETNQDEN
sGC in the CHO reporter cell, sequence (P19686 whole entry partner): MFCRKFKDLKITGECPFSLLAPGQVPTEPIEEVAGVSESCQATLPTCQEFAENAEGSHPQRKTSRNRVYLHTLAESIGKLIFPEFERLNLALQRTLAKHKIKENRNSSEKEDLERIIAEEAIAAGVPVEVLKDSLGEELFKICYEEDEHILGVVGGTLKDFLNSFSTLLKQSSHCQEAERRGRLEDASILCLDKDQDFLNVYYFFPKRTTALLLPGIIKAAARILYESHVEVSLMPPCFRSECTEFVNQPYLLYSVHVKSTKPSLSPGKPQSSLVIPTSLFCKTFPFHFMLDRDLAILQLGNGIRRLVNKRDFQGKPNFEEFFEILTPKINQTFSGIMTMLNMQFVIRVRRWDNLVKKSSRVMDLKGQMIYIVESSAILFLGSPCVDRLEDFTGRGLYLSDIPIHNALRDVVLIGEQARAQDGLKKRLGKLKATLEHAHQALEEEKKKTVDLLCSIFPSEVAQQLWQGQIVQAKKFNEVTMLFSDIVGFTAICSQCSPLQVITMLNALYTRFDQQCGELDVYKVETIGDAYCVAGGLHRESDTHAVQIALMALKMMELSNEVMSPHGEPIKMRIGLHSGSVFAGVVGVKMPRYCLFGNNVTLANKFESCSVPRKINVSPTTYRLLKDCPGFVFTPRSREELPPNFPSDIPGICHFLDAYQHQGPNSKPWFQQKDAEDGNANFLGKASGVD

Compared with `CC(C)C(C)(CC(=O)O)c1ccc(Cl)c(NC(=O)[C@H](c2ccc(Cl)cc2)[C@@H](C)C(F)(F)F)c1` (single isomer, unassigned) [Example 3], `C[C@H]([C@H](C(=O)Nc1cc(C(C)(CC(=O)O)C2CC2)ccc1Cl)c1ccc(Cl)cc1)C(F)(F)F` (some centres unmarked) [Example 7] is 1000-fold higher in “MEC (minimum effective concentration), sGC-activating activity in the CHO reporter cell” value (shortened to “MEC (minimum effective concentration)”): 0.3 nM for the first, 300 nM for the second.

Compared with `CC(C)C(C)(CC(=O)O)c1ccc(Cl)c(NC(=O)[C@H](c2ccc(Cl)cc2)[C@@H](C)C(F)(F)F)c1` (single isomer, unassigned) [Example 4], `C[C@H]([C@H](C(=O)Nc1cc(C(C)(CC(=O)O)C2CCC2)ccc1Cl)c1ccc(Cl)cc1)C(F)(F)F` (single isomer, unassigned) [Example 5] is 10-fold lower in “MEC (minimum effective concentration)” value: 3 nM for the first, 0.3 nM for the second.

`C[C@H]([C@H](C(=O)Nc1cc(C(C)(CC(=O)O)C2CCC2)ccc1Cl)c1ccc(Cl)cc1)C(F)(F)F` (single isomer, unassigned) [Example 6] and `C[C@H]([C@H](C(=O)Nc1cc(C(CC(=O)O)C2CCC2)ccc1Cl)c1ccc(Cl)cc1)C(F)(F)F` (single isomer, unassigned; (+)) [Example 33] are the same in “MEC (minimum effective concentration)” value: 1 nM for the first, 1 nM for the second.

Going from `C[C@H]([C@H](C(=O)Nc1cc(C(CC(=O)O)C2(C)CC2)ccc1Cl)c1ccc(Cl)cc1)C(F)(F)F` (single isomer, unassigned) [Example 26] to `C[C@H]([C@H](C(=O)Nc1cc(C(CC(=O)O)C2(F)CC2)ccc1Cl)c1ccc(Cl)cc1)C(F)(F)F` (some centres unmarked) [Example 27], the “MEC (minimum effective concentration)” value falls from 10 nM to 3 nM (3.3-fold).

Going from `C[C@H]([C@H](C(=O)Nc1cc(C(CC(=O)O)CC2CC2)ccc1Cl)c1ccc(Cl)cc1)C(F)(F)F` (single isomer, unassigned) [Example 35] to `C[C@H]([C@H](C(=O)Nc1cc(C(CC(=O)O)C2CC2)ccc1Cl)c1ccc(Cl)cc1)C(F)(F)F` (some centres unmarked) [Example 23], the “MEC (minimum effective concentration)” value rises from 0.3 nM to 3 nM (10-fold).

Going from `C[C@H]([C@H](C(=O)Nc1cc(C(CC(=O)O)CC2CC2)ccc1Cl)c1ccc(Cl)cc1)C(F)(F)F` (single isomer, unassigned) [Example 36] to `C[C@H]([C@H](C(=O)Nc1cc(C(CC(=O)O)C2CCC2)ccc1Cl)c1ccc(Cl)cc1)C(F)(F)F` (single isomer, unassigned; (+)) [Example 34], the “MEC (minimum effective concentration)” value rises from 3 nM to 10 nM (3.3-fold).

`CC(C)C(CC(=O)O)c1ccc(Cl)c(NC(=O)[C@H](c2ccc(Cl)cc2)[C@@H](C)C(F)(F)F)c1` (single isomer, unassigned; (+)) [Example 1] and `CC(C)C(CC(=O)O)c1ccc(Cl)c(NC(=O)[C@H](c2ccc(F)cc2)[C@@H](C)C(F)(F)F)c1` (some centres unmarked) [Example 11] are the same in “MEC (minimum effective concentration)” value: 3 nM for the first, 3 nM for the second.

Going from `CC(C)C(CC(=O)O)c1ccc(Cl)c(NC(=O)[C@H](c2ccc(Cl)cc2)[C@@H](C)C(F)(F)F)c1` (single isomer, unassigned; (+)) [Example 2] to `Cc1ccc([C@@H](C(=O)Nc2cc(C(CC(=O)O)C(C)C)ccc2Cl)[C@@H](C)C(F)(F)F)cc1` (some centres unmarked) [Example 16], the “MEC (minimum effective concentration)” value falls from 6.5 nM to 3 nM (2.2-fold).

`CCc1ccc([C@@H](C(=O)Nc2cc(C(CC(=O)O)C(C)C)ccc2Cl)[C@@H](C)C(F)(F)F)cc1` (some centres unmarked) [Example 8] and `CC(C)C(CC(=O)O)c1ccc(Cl)c(NC(=O)C(c2ccc(CC(F)(F)F)cc2)C(C)C(F)(F)F)c1` (centres unmarked) [Example 12] are the same in “MEC (minimum effective concentration)” value: 1 nM for the first, 1 nM for the second.

`CC(C)C(CC(=O)O)c1ccc(Cl)c(NC(=O)[C@H](c2ccc(Cl)c(F)c2)[C@@H](C)C(F)(F)F)c1` (some centres unmarked) [Example 9] and `Cc1cc([C@@H](C(=O)Nc2cc(C(CC(=O)O)C(C)C)ccc2Cl)[C@@H](C)C(F)(F)F)ccc1Cl` (some centres unmarked) [Example 17] are the same in “MEC (minimum effective concentration)” value: 1 nM for the first, 1 nM for the second.

`CC(C)c1ccc([C@@H](C(=O)Nc2cc(C(CC(=O)O)C(C)C)ccc2Cl)[C@@H](C)C(F)(F)F)cc1` (some centres unmarked) [Example 10] and `CC(C)C(CC(=O)O)c1ccc(Cl)c(NC(=O)[C@H](c2ccc(C(C)(C)C)cc2)[C@@H](C)C(F)(F)F)c1` (some centres unmarked) [Example 14] are the same in “MEC (minimum effective concentration)” value: 0.3 nM for the first, 0.3 nM for the second.

Compared with `CC(C)C(CC(=O)O)c1ccc(Cl)c(NC(=O)[C@H](c2ccc(C3CC3(F)F)cc2)[C@@H](C)C(F)(F)F)c1` (some centres unmarked) [Example 13], `C[C@H]([C@H](C(=O)Nc1cc(C(CC(=O)O)C2CC(F)(F)C2)ccc1Cl)c1ccc(Cl)cc1)C(F)(F)F` (some centres unmarked) [Example 28] is 100-fold higher in “MEC (minimum effective concentration)” value: 0.3 nM for the first, 30 nM for the second.

Going from `COc1cc([C@@H](C(=O)Nc2cc(C(CC(=O)O)C(C)C)ccc2Cl)[C@@H](C)C(F)(F)F)ccc1Cl` (some centres unmarked) [Example 15] to `COC(C)(C)C(CC(=O)O)c1ccc(Cl)c(NC(=O)[C@H](c2ccc(Cl)cc2)[C@@H](C)C(F)(F)F)c1` (some centres unmarked) [Example 25], the “MEC (minimum effective concentration)” value rises from 3 nM to 10 nM (3.3-fold).

First: CC(C)C(CC(=O)O)c1ccc(Cl)c(NC(=O)C(c2ccc(Cl)cc2)C2CCC(F)(F)C2)c1 (centres unmarked) [Example 18]
Second: C[C@H](C(C(=O)Nc1cc(C(CC(=O)O)C2CC2(F)F)ccc1Cl)c1ccc(Cl)cc1)C(F)(F)F (stereo partly drawn) [Example 31, 3-(4-Chloro-3-{[(3R)-2-(4-chlorophenyl)-4,4,4-trifluoro-3-methylbutanoyl]amino}phenyl)-3-(2,2-difluorocyclopropyl)propanoic acid]
The “MEC (minimum effective concentration)” value of the first is 100-fold higher: 300 nM for the first, 3 nM for the second.

Compared with `CC(C)C(CC(=O)O)c1ccc(Cl)c(NC(=O)C(c2ccc(Cl)cc2)C2CCC(F)(F)C2)c1` (centres unmarked) [Example 19], `C[C@H](C(C(=O)Nc1cc(C(CC(=O)O)C2CC2(F)F)ccc1Cl)c1ccc(Cl)cc1)C(F)(F)F` (stereo partly drawn) [Example 32, 3-(4-Chloro-3-{[(3R)-2-(4-chlorophenyl)-4,4,4-trifluoro-3-methylbutanoyl]amino}phenyl)-3-(2,2-difluorocyclopropyl)propanoic acid] is 10-fold lower in “MEC (minimum effective concentration)” value: 30 nM for the first, 3 nM for the second.

With `CC(C)C(CC(=O)O)c1ccc(Cl)c(NC(=O)C(c2ccc(Cl)cc2)C2CCC(F)(F)C2)c1` (centres unmarked) [Example 20] the “MEC (minimum effective concentration)” value was 1000 nM.
With `CC(C)C(CC(=O)O)c1ccc(Cl)c(NC(=O)C(c2ccc(Cl)cc2)C2CCC(F)(F)C2)c1` (centres unmarked) [Example 21] the “MEC (minimum effective concentration)” value was 10 nM.
